From patent US4450173A, “Compounds and method for treatment or prophylaxis of cardiac disorders” (American Hospital Supply Corporation, priority 1982, dated 1984)
Counter-ions that a name gives are not always drawn. Like-named read-outs stand apart in the source and are kept apart here. Values belong to the molecule of their own block, whether it stands above or below them.

Key:
[1] = target: guinea pig tracheal strips (Cavia porcellus, UniProt Q8K4Z4); experiment: cell-based; format: cell-based; details: for Kb: read-out: pA2 Trachea (converted); for pA2 Trachea: guinea pig trachea, carbachol tension, isoproterenol, 60 minute incubation, pA2 = -log KB
Procedure: Each tissue was suspended between a fixed glass rod and a Statham® Universal Transducer connected to a Beckman® recorder. Atria were allowed to beat spontaneously under a loading tension of approximately 0.5 gm. Intrinsic depressant for stimulant activity was determined for each compound by progressively increasing concentrations in the tissue baths at 60-minute intervals. Tissues were not washed between increments. […] Changes in rate in response to isoproterenol were measured in the absence and presence of test compounds. Spiral strips of guinea pig trachea were suspended under 5 gm resting tension and incubated with phentolamine, tropolone and cocaine. Active tension was generated by addition of carbachol (3.0×10^-7 M) and decreases in tension in response to isoproterenol were quantitated. Cumulative concentration-response curves were produced with isoproterenol both before and after 60 minute incubation of test compounds with atria and trachea. The blocking potency of test compounds was estimated by computing pA2 values (-log KB) by the method of Furchgott, The Pharmacological Differentiation of Adrenergic Receptors, Ann. […] A ratio greater than one indicates cardioselectivity.

[2] = test system: guinea pig right atria and guinea pig tracheal strips; experiment: Cardioselectivity, KB tracheal/KB atrial; format: cell-based
Procedure: Several of the compounds of the present invention were tested for β-blocking activity in vitro using guinea pig right atria and guinea pig tracheal strips mounted in a tissue bath containing oxygenated (95% O2 -5% CO2) Krebs physiological salt solution at 37° C. Each tissue was suspended between a fixed glass rod and a Statham® Universal Transducer connected to a Beckman® recorder. Atria were allowed to beat spontaneously under a loading tension of approximately 0.5 gm. Intrinsic depressant for stimulant activity was determined for each compound by progressively increasing concentrations in the tissue baths at 60-minute intervals. Tissues were not washed between increments. […]. Changes in rate in response to isoproterenol were measured in the absence and presence of test compounds. Spiral strips of guinea pig trachea were suspended under 5 gm resting tension and incubated with phentolamine, tropolone and cocaine. Active tension was generated by addition of carbachol (3.0×10^-7 M) and decreases in tension in response to isoproterenol were quantitated. Cumulative concentration-response curves were produced with isoproterenol both before and after 60 minute incubation of test compounds with atria and trachea. The blocking potency of test compounds was estimated by computing pA2 values (-log KB) by the method of Furchgott, The Pharmacological Differentiation of Adrenergic Receptors, Ann. N.Y. Acad. Sci.; 139: 553-570 (1967). Comparison of blockade of right atrial and tracheal responses to isoproterenol permitted assessment of cardioselectivity of test compounds; […]. A ratio greater than one indicates cardioselectivity. […]

[3] = Disappearance in vitro in human whole blood; format: in vitro ADME; details: 50 μg in 1 mL added to 1 mL human whole blood, 37° C.; read-out: T1/2 Human Whole Blood
Procedure: (§1) The rate of disappearance of a compound is expressed as the half-life (T1/2), which is the time period in which one-half of the initial amount of compound tested disappears. In each experiment, 1 mL of a solution containing 50 μg of the test compound was added to 1 mL of whole blood or 1 mL of a 33% (w/v) liver homogenate. […] At the designated time periods, the test mixtures were removed from the incubator and transferred to a 0° C. ice bath. Acetonitrile (2 mL) was immediately added and the mixtures were mixed to stop enzymatic hydrolysis. Zero time samples were prepared by adding 2 mL of acetonrile to denature the proteins prior to addition of the test compounds. […] The half life of each test compound was determined graphically by plotting the decrease in concentration as a function of time.

[4] = Disappearance in vitro in dog whole blood; format: in vitro ADME; details: 50 μg in 1 mL added to 1 mL dog whole blood, 37° C.; read-out: T1/2 Dog Whole Blood
Procedure: as §1

[5] = Disappearance in vitro in dog liver homogenate; format: in vitro ADME; details: 50 μg in 1 mL added to 1 mL of 33% (w/v) dog liver homogenate, 37° C.; read-out: T1/2 Dog Liver Homogenate
Procedure: as §1

guinea pig right atria = guinea pig right atria (Cavia porcellus, UniProt H0W3H1); experiment: β-blocking activity in vitro, guinea pig right atria (rate response to isoproterenol); format: cell-based; details: for pA2 Atria: guinea pig right atria, isoproterenol, 60 minute incubation, pA2 = -log KB
Procedure: Each tissue was suspended between a fixed glass rod and a Statham® Universal Transducer connected to a Beckman® recorder. Atria were allowed to beat spontaneously under a loading tension of approximately 0.5 gm. Intrinsic depressant for stimulant activity was determined for each compound by progressively increasing concentrations in the tissue baths at 60-minute intervals. Tissues were not washed between increments. The maximum concentration showing little or no cardiodepressant activity was chosen for blockade experiments. Changes in rate in response to isoproterenol were measured in the absence and presence of test compounds. Spiral strips of guinea pig trachea were suspended under 5 gm resting tension and incubated with phentolamine, tropolone and cocaine. Active tension was generated by addition of carbachol (3.0×10^-7 M) and decreases in tension in response to isoproterenol were quantitated. Cumulative concentration-response curves were produced with isoproterenol both before and after 60 minute incubation of test compounds with atria and trachea. The blocking potency of test compounds was estimated by computing pA2 values (-log KB) by the method of Furchgott, The Pharmacological Differentiation of Adrenergic Receptors, Ann. […] The degree of cardioselectivity was estimated from the ratio, KB tracheal/KB atrial (10^(pA.sbsp.2^atria-pA.sbsp.2^trachea)). A ratio greater than one indicates cardioselectivity. Test drugs were dissolved in distilled water and added to the bath (30 mL) in a volume of 10 or 100 μL.

[6] = test system: heart rate response to isoproterenol; experiment: Duration of β-blockade in vivo in anesthetized dogs, 3-hour infusion; design: species or system dog; details: for ED50: Canis lupus familiaris, iv, 3-hour infusion, read-out: Potency (mg/kg/180 min); for ED50 / % I (Percent inhibition of heart rate response to isoproterenol): bolus isoproterenol 0.4 μg/kg; for 80% Recovery Time: after 3-hour infusion; for % I (Percent inhibition of heart rate response to isoproterenol): end of 3-hour infusion
Procedure: (§2) The duration of β-blockade was determined in vivo using pentobartital-anesthetized dogs instrumented for measurement of heart rate using a Beckman® cardiotachometer triggered electronically by a phasic aortic blood pressure signal. Both vagus nerves were severed in the cervical region and the animals were mechanically ventilated. Two experimental designs were used. The first employed a 40-minute infusion of test compound and the second used a 3-hour infusion of test compound. In the 40-minute model, isoproterenol was infused into a foreleg vein at the rate of 0.5 μg/kg/min to induce a β-receptor mediated tachycardia. Various doses of test compound are then infused into a femoral vein over a period of 40 minutes. This infusion was then terminated and recovery from blockade was quantitated. […] This cumulative dose is expressed as mg/kg and is an indication of potency. The time period required for 80% recovery of heart rate response for each dose of test drug was also measured to quantitate duration of action. […] Test compounds were dissolved in 0.9% NaCl and infused at a rate of 0.05 mL/kg/min or less. In the 3-hour infusion model, bolus doses of isoproterenol (0.4 μg/kg) were used to assess the degree of β-blockade and recovery from β-blockade after termination of the infusion. The doses were spaced at 10-minute intervals and were given before, during and following the infusion of test compounds. The infusion rate was adjusted so that at the end of the 3-hour infusion period the degree of isoproterenol inhibition averaged about 50% of control.

[7] = test system: heart rate response to isoproterenol (β-receptor mediated tachycardia); experiment: Duration of β-blockade in vivo in anesthetized dogs, 40-minute infusion; design: species or system dog; details: for 80% Recovery Time: after 40-minute infusion, normalized to 50% inhibition; for ED50: Canis lupus familiaris, iv, 40 min, read-out: Potency (mg/kg/40 min)
Procedure: as §2

[8] = read-out: pA2 Atria (converted)
[9] = ratio KB tracheal/KB atrial, greater than one indicates cardioselectivity

Chain of guinea pig right atria (H0W3H1 1-470): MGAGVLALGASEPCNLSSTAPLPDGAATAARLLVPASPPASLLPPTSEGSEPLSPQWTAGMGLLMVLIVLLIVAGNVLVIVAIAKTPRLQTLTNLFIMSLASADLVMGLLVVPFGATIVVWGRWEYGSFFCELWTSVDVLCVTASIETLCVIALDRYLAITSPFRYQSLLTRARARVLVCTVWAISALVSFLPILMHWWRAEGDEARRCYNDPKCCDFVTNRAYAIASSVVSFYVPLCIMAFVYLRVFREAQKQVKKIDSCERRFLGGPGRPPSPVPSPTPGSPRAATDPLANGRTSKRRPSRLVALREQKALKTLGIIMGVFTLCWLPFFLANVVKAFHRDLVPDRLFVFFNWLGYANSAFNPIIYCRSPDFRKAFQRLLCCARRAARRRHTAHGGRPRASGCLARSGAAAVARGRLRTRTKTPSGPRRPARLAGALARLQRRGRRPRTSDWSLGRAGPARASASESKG
Chain of guinea pig tracheal strips (Q8K4Z4 whole entry): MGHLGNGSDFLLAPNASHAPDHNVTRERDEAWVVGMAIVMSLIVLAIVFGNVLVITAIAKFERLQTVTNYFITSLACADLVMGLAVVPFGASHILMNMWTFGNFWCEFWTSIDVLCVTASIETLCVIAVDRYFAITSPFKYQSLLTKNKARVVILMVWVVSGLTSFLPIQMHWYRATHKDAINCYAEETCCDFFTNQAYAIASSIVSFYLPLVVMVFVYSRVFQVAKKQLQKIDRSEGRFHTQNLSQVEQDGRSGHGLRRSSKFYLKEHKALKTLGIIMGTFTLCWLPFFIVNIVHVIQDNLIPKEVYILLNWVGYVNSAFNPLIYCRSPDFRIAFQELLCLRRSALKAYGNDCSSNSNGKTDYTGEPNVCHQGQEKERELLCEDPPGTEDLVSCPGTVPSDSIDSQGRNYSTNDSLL

- Kb [1]: 1260 nM
- half-life [3]: > 3 h
- half-life [4]: > 3 h
- half-life [5]: 9 ± 6 min
SMILES: CCOC(=O)c1ccc(CNCC(O)COc2ccccc2C)cc1 (stereo not shown) [XV]
- Cardioselectivity [2]: 5

- Kb (guinea pig right atria; [8]): 398 nM
SMILES: Cc1ccccc1OCC(O)CNCCC(=O)Oc1ccccc1 (stereo not shown) [XVIII]
- ED50 [6]: 54 ± 14 mg/kg
- 80% Recovery Time [6]: > 60 min
- % I (Percent inhibition of heart rate response to isoproterenol) [6]: 54 ± 8%

- Kb (guinea pig right atria; [8]): 794 nM
SMILES: CCOC(=O)CCNCC(O)COc1c(C)cccc1C (stereo not shown) [XXVI]

- Kb (guinea pig right atria; [8]): 1260 nM
- Kb [1]: > 10000 nM
SMILES: CCOC(=O)CCNCC(O)COc1ccc(CCC(=O)OC)cc1.Cl (stereo not shown) [Example VII, Ethyl 3-[N-[2-Hydroxy-3-[4-[2-(methoxycarbonyl)ethyl]phenoxy]propyl]amino]propionate Hydrochloride]
- Cardioselectivity [2, 9]: > 8

- Kb (guinea pig right atria; [8]): 251 nM
- pA2 Trachea [1]: 6.6
SMILES: CCOC(=O)CCNCC(O)COc1ccccc1C(=O)OC (stereo not shown) [VIII, Ethyl 3-[N-[2-Hydroxy-3-[2-(methoxycarbonyl)phenoxy]propyl]amino]propionateOxalate Hemihydrate]
- Cardioselectivity [2]: 1.0
- ED50 [6]: 27.4 ± 6 mg/kg
- 80% Recovery Time [6]: 10 ± 2 min
- % I (Percent inhibition of heart rate response to isoproterenol) [6]: 53 ± 2%

- pA2 Trachea [1]: 6.6
- half-life [3]: 2.12 ± 0.833 h
- half-life [4]: 1.23 ± 0.35 h
- half-life [5]: 4 ± 3 min
SMILES: CCOC(=O)CCNCC(O)COc1ccccc1Cl (stereo not shown) [XXI]
- Cardioselectivity [2, 9]: 6
- ED50 [6]: 10.9 mg/kg
- 80% Recovery Time [6]: > 60 min
- % I (Percent inhibition of heart rate response to isoproterenol) [6]: 77%

- pA2 Trachea [1]: 6.7
- half-life [3]: 1.97 ± 0.433 h
- half-life [4]: 0.667 ± 0.25 h
- half-life [5]: 3 ± 3 min
SMILES: CCOC(=O)CCNCC(O)COc1cccc(Cl)c1 (stereo not shown) [XXII]
- Cardioselectivity [2, 9]: 5
- ED50 [6]: 8.5 mg/kg
- 80% Recovery Time [6]: > 60 min
- % I (Percent inhibition of heart rate response to isoproterenol) [6]: 77%

SMILES: CC(C)NCC(O)COc1cccc2ccccc12 (stereo not shown) [Propranolol, reference compound]
- 80% Recovery Time ([7]; dogs): 46 min

- half-life [3]: 2.63 ± 0.133 h
- half-life [4]: > 3 h
- half-life [5]: 4 ± 2.5 min
SMILES: CCOC(=O)CCNCC(O)COc1ccc(OC)cc1 (stereo not shown) [XXV]
- ED50 [7]: 17.2 ± 1.2 mg/kg
- 80% Recovery Time ([7]; dogs): 11 ± 2 min

SMILES: CCOC(=O)CNCC(O)COc1cccc2ccccc12 (stereo not shown) [Example II, Ethyl N-[[2-Hydroxy-3-(1-naphthoxy]propyl]glycinate Oxalate Hemihydrate]
- 80% Recovery Time ([7]; dogs): 53 ± 11 min

- pA2 Trachea [1]: 5.6
SMILES: CCOC(=O)CNCC(O)COc1ccccc1 (stereo not shown) [Example I, Ethyl N-(2-Hydroxy-3-phenoxypropyl) glycinate Oxalate]
- Cardioselectivity [2, 9]: 1
- Potency (mg/kg/40 min) ([7]; cumulative dose over 40-minute infusion, normalized to 50% inhibition of isoproterenol response, dogs): very low

- Kb [1]: 200 nM
SMILES: COC(=O)c1ccc(CNCC(O)COc2ccccc2C)cc1 (stereo not shown) [XVI]
- Cardioselectivity [2, 9]: 1.6

- pA2 Trachea [1]: 6.0
SMILES: CCOC(=O)CCCNCC(O)COc1ccccc1 (stereo not shown) [Example IV]

- pA2 Trachea [1]: 5.6
SMILES: CCOC(=O)CCNCC(O)COc1ccc(Cl)cc1 (stereo not shown) [Example VI, Ethyl 3[N-[3-[4-(chlorophenoxy)-2-hydroxy]propyl]amino]propionate Hydrochloride]
- Cardioselectivity [2, 9]: 6

- pA2 Trachea [1]: 6.2
SMILES: CCOC(=O)CNCC(O)COc1ccccc1C (stereo not shown) [XXVII]
- Cardioselectivity [2, 9]: 0.5

- pA2 Trachea [1]: 6.7
- half-life [3]: 1.95 ± 0.65 h
- half-life [4]: > 3 h
SMILES: CCOC(=O)CCCNCC(O)COc1ccccc1C (stereo not shown) [XI]
- Cardioselectivity [2, 9]: 5
- ED50 [7]: 3.1 ± 0.7 mg/kg
- 80% Recovery Time ([7]; dogs): 15 ± 2 min

- pA2 Trachea [1]: 6.7
SMILES: CCOC(=O)CCNCC(O)COc1cccc(OC)c1 (stereo not shown) [XXIV]
- Cardioselectivity [2, 9]: .5

- pA2 Trachea [1]: 6.5
SMILES: CCOC(=O)CCNCC(O)COc1cccc(C)c1 (stereo not shown) [XXIII]
- Cardioselectivity [2, 9]: 1.6

SMILES: CC(=O)Nc1ccc(OCC(O)CNC(C)C)cc1 (stereo not shown) [Practolol, reference compound]
- 80% Recovery Time ([7]; dogs): 61 min

- pA2 Atria (guinea pig right atria): 7.0
- pA2 Trachea [1]: 6.6
SMILES: COc1ccc(CCOC(=O)CCNCC(O)COc2ccccc2C)cc1OC (stereo not shown) [XXVIII]
- Cardioselectivity [2]: 2.5
- ED50 [6]: 168 mg/kg
- 80% Recovery Time [6]: > 60 min
- % I (Percent inhibition of heart rate response to isoproterenol) [6]: 85%

- Kb (guinea pig right atria; [8]): 2000 nM
SMILES: Cc1ccccc1OCC(O)CNCCC(=O)OCC(F)(F)F (stereo not shown) [XX]

- pA2 Atria (guinea pig right atria): inactive
- pA2 Trachea [1]: inactive
SMILES: CCOC(=O)C(Cc1ccc(O)cc1)NCC(O)COc1ccccc1 (stereo not shown) [Example V, Ethyl N[(2-Hydroxy-3-phenoxy)propyl]tyrosinate]

- pA2 Trachea [1]: 5.9
SMILES: CCOC(=O)CCNCC(O)COc1ccccc1 (stereo not shown) [Example III, Ethyl 3-[N-[2-Hydroxy-3-phenoxy)propyl]amino]propionate Oxalate]
- Cardioselectivity [2, 9]: 25
- ED50 [7]: 12.6 ± 4.1 mg/kg
- 80% Recovery Time ([7]; dogs): 29 ± 13 min

- pA2 Trachea [1]: 7.0
- half-life [3]: 2.47 ± 0.0333 h
- half-life [4]: 0.867 ± 0.15 h
- half-life [5]: 9 ± 8 min
SMILES: COC(=O)CCNCC(O)COc1ccccc1C (stereo not shown) [XVII]
- Cardioselectivity [2]: 1.6
- ED50 [6]: 4.4 mg/kg
- 80% Recovery Time [6]: 27 ± 4 min
- % I (Percent inhibition of heart rate response to isoproterenol) [6]: 56 ± 4%

- Kb (guinea pig right atria; [8]): 2000 nM
SMILES: Cc1ccccc1OCC(O)CNCCC(=O)Oc1ccc(F)cc1 (stereo not shown) [XIX]

- Kb [1]: 25.1 nM
SMILES: COC(=O)CCNCC(O)COc1cccc2ccccc12 (stereo not shown) [XXIX]
- Cardioselectivity [2, 9]: 0.3
